This is an account of results in US20250346585A1 (Alexion Pharmaceuticals, Inc., priority 2022, published 2025).

Molecules are shown by their SMILES. Where a name gives a salt, the structure may show the parent alone. Where only a bound is given, the exact number is not on record here.

Sequence of Human complement C1s enzyme (P09871 438-688 limits assumed): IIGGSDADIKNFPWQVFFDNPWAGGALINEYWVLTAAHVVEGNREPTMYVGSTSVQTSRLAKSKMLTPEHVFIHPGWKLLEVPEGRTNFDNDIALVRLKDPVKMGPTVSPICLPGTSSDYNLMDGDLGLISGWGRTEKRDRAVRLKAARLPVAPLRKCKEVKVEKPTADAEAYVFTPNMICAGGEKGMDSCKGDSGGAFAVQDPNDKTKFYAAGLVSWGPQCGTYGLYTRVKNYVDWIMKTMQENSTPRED
Sequence of Human complement C1s enzyme (P09871 16-437 partner limits assumed): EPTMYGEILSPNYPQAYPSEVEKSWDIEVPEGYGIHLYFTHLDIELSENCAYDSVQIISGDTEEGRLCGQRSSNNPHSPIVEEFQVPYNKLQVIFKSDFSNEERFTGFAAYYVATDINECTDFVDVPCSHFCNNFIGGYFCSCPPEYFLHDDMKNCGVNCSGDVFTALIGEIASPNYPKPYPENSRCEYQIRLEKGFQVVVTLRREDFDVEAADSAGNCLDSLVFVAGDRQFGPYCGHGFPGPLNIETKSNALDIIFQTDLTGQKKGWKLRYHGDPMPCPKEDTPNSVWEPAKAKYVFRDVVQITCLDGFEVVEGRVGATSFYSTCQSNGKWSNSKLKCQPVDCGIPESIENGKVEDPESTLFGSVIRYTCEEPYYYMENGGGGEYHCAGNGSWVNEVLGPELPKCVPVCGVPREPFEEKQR

This test addresses Human complement C1s enzyme (Homo sapiens (Human), UniProt P09871). Nature of the test: Human C1s enzyme assay. It is filed as biochemical. The following applies: Human C1s enzyme assay of Example 3; read-out: IC50 (Stars). The essentials:
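Purified serum-derived human C1s (1.16 nM final) preincubated 5 min at room temperature with compound in 50 mM Tris, 1 M NaCl, pH 7.5. Z-L-Lys-SBzl thioester substrate and DTNB added (100 μM each, final); A405 read every 30 s for 30 min. IC50 from nonlinear regression of reaction rates against compound concentration.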
For the molecule `C[C@@H](NC(=O)[C@@H]1C[C@@H](OC(F)F)CN1C(=O)CNC(=O)c1ccc(Oc2ccc(C#N)cc2)cc1)c1cc(C(=N)N)cs1` [Compound 49, (2S,4R)—N—((R)-1-(4-carbamimidoylthiophen-2-yl)ethyl)-1-((4-(4-cyanophenoxy)benzoyl)glycyl)-4-(difluoromethoxy)pyrrolidine-2-carboxamide], the concentration for half-maximal inhibition (IC50) is under 100 nM.
The result for `N=C(N)c1csc(CNC(=O)[C@@H]2C[C@@H](OC(F)F)CN2C(=O)CNC(=O)c2ccc3c(c2)-c2ccccc2C3(F)F)c1` [Compound 50, (2S,4R)—N-((4-carbamimidoylthiophen-2-yl)methyl)-1-((9,9-difluoro-9H-fluorene-3-carbonyl)glycyl)-4-(difluoromethoxy)pyrrolidine-2-carboxamide] reads under 100 nM.
The result for `N=C(N)c1csc(CNC(=O)[C@@H]2C[C@](F)(CF)CN2C(=O)CNC(=O)c2ccc3c(c2)-c2ccccc2C3(F)F)c1` [Compound 52, (2S,4R)—N-((4-carbamimidoylthiophen-2-yl)methyl)-1-((9,9-difluoro-9H-fluorene-3-carbonyl)glycyl)-4-fluoro-4-(fluoromethyl)pyrrolidine-2-carboxamide] reads under 100 nM; that for `C[C@@H](NC(=O)[C@@H]1C[C@]2(CO)C[C@@H]2N1C(=O)CNC(=O)c1ccc2c(c1)-c1ccccc1C2(F)F)c1cc(C(=N)N)cs1` [Compound 53, (1S,3S,5R)—N—((R)-1-(4-carbamimidoylthiophen-2-yl)ethyl)-2-((9,9-difluoro-9H-fluorene-3-carbonyl)glycyl)-5-(hydroxymethyl)-2-azabicyclo [3.1.0]hexane-3-carboxamide], under 100 nM; that for `C[C@@H](NC(=O)[C@@H]1C[C@@H](S(C)(=O)=O)CN1C(=O)CNC(=O)c1ccc(Oc2ccc(F)cc2)cc1)c1cc(C(=N)N)cs1` [Compound 54, (2S,4R)—N—((R)-1-(4-carbamimidoylthiophen-2-yl)ethyl)-1-((4-(4-fluorophenoxy)benzoyl)glycyl)-4-(methylsulfonyl)pyrrolidine-2-carboxamide], under 100 nM.
The result for `N=C(N)c1csc(CNC(=O)[C@@H]2CC3(CN2C(=O)CNC(=O)c2ccc4c(c2)-c2ccccc2C4(F)F)OCCO3)c1` [Compound 55, (S)—N-((4-carbamimidoylthiophen-2-yl)methyl)-7-((9,9-difluoro-9H-fluorene-3-carbonyl)glycyl)-1,4-dioxa-7-azaspiro[4.4]nonane-8-carboxamide] reads under 100 nM; that for `C[C@@H](NC(=O)[C@@H]1CC2(CN1C(=O)CNC(=O)c1ccc3c(c1)-c1ccccc1C3(F)F)OCCO2)c1ccc(C(=N)N)s1` [Compound 56], under 100 nM.
For the molecule `C[C@@H](NC(=O)[C@@H]1C[C@@H](OC(F)F)CN1C(=O)CNC(=O)c1ccc(Oc2ccc(F)cc2)cc1)c1ccc(C(=N)N)s1` [Compound 57, (2S,4R)—N—((R)-1-(5-carbamimidoylthiophen-2-yl)ethyl)-4-(difluoromethoxy)-1-((4-(4-fluorophenoxy)benzoyl)glycyl)pyrrolidine-2-carboxamide], the IC50 was under 100 nM.
Then `COC[C@@]1(F)C[C@@H](C(=O)NCc2cc(C(=N)N)cs2)N(C(=O)CNC(=O)c2ccc3c(c2)-c2ccccc2C3(F)F)C1` [Compound 58, (2S,4R)—N-((4-carbamimidoylthiophen-2-yl)methyl)-1-((9,9-difluoro-9H-fluorene-3-carbonyl)glycyl)-4-fluoro-4-(methoxymethyl)pyrrolidine-2-carboxamide], with under 100 nM.
The result for `Cc1ccccc1[C@H]1C[C@@H](C(=O)N[C@H](C)c2cc(C(=N)N)cs2)N(C(=O)CNC(=O)c2ccc(Oc3ccc(F)cc3)cc2)C1` [Compound 59, (2S,4R)—N—((R)-1-(4-carbamimidoylthiophen-2-yl)ethyl)-1-((4-(4-fluorophenoxy)benzoyl)glycyl)-4-(o-tolyl)pyrrolidine-2-carboxamide] reads under 100 nM; that for `CC1(C)c2ccccc2-c2cc(C(=O)NCC(=O)N3CC4(C[C@H]3C(=O)NCc3cc(C(=N)N)cs3)OCCO4)ccc21` [Compound 60, (S)—N-((4-carbamimidoylthiophen-2-yl)methyl)-7-((9,9-dimethyl-9H-fluorene-3-carbonyl)glycyl)-1,4-dioxa-7-azaspiro[4.4]nonane-8-carboxamide], under 100 nM.
The result for `C[C@@H](NC(=O)[C@@H]1C[C@@H](S(C)(=O)=O)CN1C(=O)CNC(=O)c1ccc2c(c1)-c1ccccc1C2(F)F)c1cc(C(=N)N)cs1` [Compound 61, (2S,4R)—N—((R)-1-(4-carbamimidoylthiophen-2-yl)ethyl)-1-((9,9-difluoro-9H-fluorene-3-carbonyl)glycyl)-4-(methylsulfonyl)pyrrolidine-2-carboxamide] reads under 100 nM; that for `C[C@@H]1C[C@@H](C(=O)N[C@H](C)c2cc(C(=N)N)cs2)N(C(=O)CNC(=O)c2ccc3c(c2)-c2ccccc2C3(F)F)C1` [Compound 62, (2S,4R)—N—((R)-1-(4-carbamimidoylthiophen-2-yl)ethyl)-1-((9,9-difluoro-9H-fluorene-3-carbonyl)glycyl)-4-methylpyrrolidine-2-carboxamide], under 100 nM.
As for `C[C@@H]1C[C@@H](C(=O)N[C@H](C)c2cc(C(=N)N)cs2)N(C(=O)CNC(=O)c2ccc(Oc3ccc(F)cc3)cc2)C1` [Compound 63, (2S,4R)—N—((R)-1-(4-carbamimidoylthiophen-2-yl)ethyl)-1-((4-(4-fluorophenoxy)benzoyl)glycyl)-4-methylpyrrolidine-2-carboxamide], the IC50 was under 100 nM.
Then `C[C@@H](NC(=O)[C@@H]1C[C@@H](OC(F)F)CN1C(=O)CNC(=O)c1ccc(Oc2ccc(C3CC3)cc2)cc1)c1cc(C(=N)N)cs1` [Compound 64, (2S,4R)—N—((R)-1-(4-carbamimidoylthiophen-2-yl)ethyl)-1-((4-(4-cyclopropylphenoxy)benzoyl)glycyl)-4-(difluoromethoxy)pyrrolidine-2-carboxamide hydrochloride], with under 100 nM.
Then `C[C@@H](NC(=O)[C@@H]1C[C@@H](OC(F)F)CN1C(=O)CNC(=O)c1ccc(Oc2ccc(C(F)F)cc2)cc1)c1cc(C(=N)N)cs1` [Compound 65, (2S,4R)—N—((R)-1-(4-carbamimidoylthiophen-2-yl)ethyl)-4-(difluoromethoxy)-1-((4-(4-(difluoromethyl)phenoxy)benzoyl)glycyl)pyrrolidine-2-carboxamide], with under 100 nM; and `C[C@@H](NC(=O)[C@@H]1CC2(CN1C(=O)CNC(=O)c1cc3ccc1CCc1ccc(cc1)CC3)OCCO2)c1cc(C(=N)N)cs1` [Compound 66, (S)-7-((1,4(1,4)-dibenzenacyclohexaphane-1^2-carbonyl)glycyl)-N—((R)-1-(4-carbamimidoylthiophen-2-yl)ethyl)-1,4-dioxa-7-azaspiro[4.4]nonane-8-carboxamide], with under 100 nM; and `C[C@@H](NC(=O)[C@@H]1C[C@]2(C)C[C@@H]2N1C(=O)CNC(=O)c1ccc(Oc2ccc(F)cc2)cc1)c1ccc(C(=N)N)s1` [Compound 67, (1S,3S,5S)—N—((R)-1-(5-carbamimidoylthiophen-2-yl)ethyl)-2-((4-(4-fluorophenoxy)benzoyl)glycyl)-5-methyl-2-azabicyclo[3.1.0]hexane-3-carboxamide], with under 100 nM.
On to `COC[C@@]1(F)C[C@@H](C(=O)NCc2ccc(C(=N)N)s2)N(C(=O)CNC(=O)c2ccc(Oc3ccc(F)cc3)cc2)C1` [Compound 68, (2S,4R)—N-((5-carbamimidoylthiophen-2-yl)methyl)-4-fluoro-1-((4-(4-fluorophenoxy)benzoyl)glycyl)-4-(methoxymethyl)pyrrolidine-2-carboxamide], for which the IC50 was under 100 nM.
The result for `C[C@@H](NC(=O)[C@@H]1C[C@]2(COCCN)C[C@@H]2N1C(=O)CNC(=O)c1ccc(Oc2ccc(F)cc2)cc1)c1cc(C(=N)N)cs1` [Compound 69, (1S,3S,5R)-5-((2-aminoethoxy)methyl)-N—((R)-1-(4-carbamimidoylthiophen-2-yl)ethyl)-2-((4-(4-fluorophenoxy)benzoyl)glycyl)-2-azabicyclo[3.1.0]hexane-3-carboxamide] reads under 100 nM.
The result for `CO[C@@H]1C[C@@H](C(=O)N[C@H](C)c2cc(C(=N)N)cs2)N(C(=O)CNC(=O)c2ccc(Oc3ccc(F)cc3)cc2)C1` [Compound 70, (2S,4R)—N—((R)-1-(4-carbamimidoylthiophen-2-yl)ethyl)-1-((4-(4-fluorophenoxy)benzoyl)glycyl)-4-methoxypyrrolidine-2-carboxamide] reads under 100 nM.
Consider `CO[C@@H]1C[C@@H](C(=O)N[C@H](C)c2cc(C(=N)N)cs2)N(C(=O)CNC(=O)c2ccc3c(c2)-c2ccccc2C3(F)F)C1` [Compound 71, (2S,4R)—N—((R)-1-(4-carbamimidoylthiophen-2-yl)ethyl)-1-((9,9-difluoro-9H-fluorene-3-carbonyl)glycyl)-4-methoxypyrrolidine-2-carboxamide], for which the IC50 was under 100 nM.
For `COC[C@@]12C[C@@H]1N(C(=O)CNC(=O)c1ccc3c(c1)-c1ccccc1C3(F)F)[C@H](C(=O)N[C@H](C)c1cc(C(=N)N)cs1)C2` [Compound 72, (1S,3S,5R)—N—((R)-1-(4-carbamimidoylthiophen-2-yl)ethyl)-2-((9,9-difluoro-9H-fluorene-3-carbonyl)glycyl)-5-(methoxymethyl)-2-azabicyclo[3.1.0]hexane-3-carboxamide], the IC50 was under 100 nM.
The result for `N=C(N)c1csc(CNC(=O)[C@@H]2CC3(CN2C(=O)CNC(=O)c2ccc(-c4ccc(F)cc4)cc2)OCCO3)c1` [Compound 73, (S)—N-((4-carbamimidoylthiophen-2-yl)methyl)-7-((4′-fluoro-[1,1′-biphenyl]-4-carbonyl)glycyl)-1,4-dioxa-7-azaspiro[4.4]nonane-8-carboxamide] reads under 100 nM.
The result for `N=C(N)c1csc(CNC(=O)[C@@H]2CC3(CN2C(=O)CNC(=O)c2ccc(Oc4ccccc4)cc2F)OCCO3)c1` [Compound 74, (S)—N-((4-carbamimidoylthiophen-2-yl)methyl)-7-((2-fluoro-4-phenoxybenzoyl)glycyl)-1,4-dioxa-7-azaspiro[4.4]nonane-8-carboxamide] reads under 100 nM.
